One assay deals with B-Raf (Homo sapiens, UniProt P15056). The experiment in a line: B-Raf Accelerated MEK ATPase assay (BRAMA). The class given is biochemical. The following applies: BRAMA enzyme assay; class by pIC50; read-out: B-Raf Activity. A digest of the protocol: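 B-Raf activity read as intrinsic MEK ATPase: catalytic activated RAF with non-phosphorylated MEK drives ADP formation, coupled through pyruvate kinase and lactate dehydrogenase to NADH oxidation, independent of ERK phosphorylation.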

Another assay has as its system A375P tumor cells. The assay is described as follows: Cell growth inhibition assay (CellTiter-Glo), A375P.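 Note: total ATP luminescence used as proxy for cell number, serial threefold compound dilutions at 0.2% DMSO, growth inhibition expressed versus DMSO vehicle-treated wells.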 The conditions noted are these: Homo sapiens, 72 h, read-out: Activity in A375P Tumor Cells. In general terms: In ATP-based viability assays light output follows the ATP content of the culture.
The subject of the next assay is HT-29 tumor cells. The experiment in a line: Cell growth inhibition assay (CellTiter-Glo), HT-29.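 Note: ATP content read by luminescence as proxy for cell number, growth inhibition versus DMSO vehicle wells, 0.2% DMSO final, nine serial threefold compound dilutions.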 The following applies: Homo sapiens, HT-29, 72 h, read-out: Activity in HT-29 Tumor Cells.
Another assay relates to Colo205 tumor cells. The experiment in a line: Cell growth inhibition assay (CellTiter-Glo), Colo205.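 Note: growth measured via total ATP luminescence (CellTiter-Glo) as a proxy for cell number, inhibition expressed against DMSO-treated control wells, 3-day exposure at 0.2% final DMSO.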 The following applies: Homo sapiens, COLO 205, 72 h, read-out: Activity in Colo205 Tumor Cells.
Another assay relates to SK-MEL-3 tumor cells. The assay is described as follows: Cell growth inhibition assay (CellTiter-Glo), SK-MEL-3.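 Note: human melanoma cells grown with compound for 3 days in 0.2% DMSO, total ATP read by luminescence as proxy for cell number, growth inhibition versus DMSO-treated wells.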 The following applies: Homo sapiens, SK-MEL3, 72 h, read-out: Activity in SK-MEL-3 Tumor Cells.
The test system of a further assay is SK-MEL-28 tumor cells. The experiment in a line: Cell growth inhibition assay (CellTiter-Glo), SK-MEL-28.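 Note: luminescent total ATP as a proxy for cell number, threefold serial dilutions at 0.2% DMSO, percent growth inhibition versus DMSO vehicle control wells.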 The conditions noted are these: Homo sapiens, SK-MEL-28, 72 h, read-out: Activity in SK-MEL-28 Tumor Cells.

Chain of B-Raf (P15056 whole entry): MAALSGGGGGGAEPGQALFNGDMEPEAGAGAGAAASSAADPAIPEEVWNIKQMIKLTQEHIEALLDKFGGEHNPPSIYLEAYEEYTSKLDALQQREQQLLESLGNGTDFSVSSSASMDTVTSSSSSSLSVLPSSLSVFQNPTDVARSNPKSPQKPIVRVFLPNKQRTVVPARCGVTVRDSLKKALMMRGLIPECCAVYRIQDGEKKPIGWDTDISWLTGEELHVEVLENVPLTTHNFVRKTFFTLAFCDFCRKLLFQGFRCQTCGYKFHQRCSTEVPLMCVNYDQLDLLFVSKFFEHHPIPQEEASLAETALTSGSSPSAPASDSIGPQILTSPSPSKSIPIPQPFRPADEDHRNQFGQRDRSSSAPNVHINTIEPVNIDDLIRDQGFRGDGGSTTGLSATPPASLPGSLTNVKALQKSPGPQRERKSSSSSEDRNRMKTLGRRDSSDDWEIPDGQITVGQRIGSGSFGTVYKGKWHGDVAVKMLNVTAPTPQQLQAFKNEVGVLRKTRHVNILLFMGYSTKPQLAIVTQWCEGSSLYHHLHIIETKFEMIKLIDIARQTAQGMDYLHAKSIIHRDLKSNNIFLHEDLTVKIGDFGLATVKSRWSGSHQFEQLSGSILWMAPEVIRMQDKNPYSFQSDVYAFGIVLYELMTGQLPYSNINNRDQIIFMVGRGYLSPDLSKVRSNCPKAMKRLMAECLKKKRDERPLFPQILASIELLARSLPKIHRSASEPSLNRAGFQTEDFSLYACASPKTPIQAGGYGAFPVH
Protocol for SK-MEL-3 tumor cells: Cell Growth Inhibition Assays Human colon tumor cells (Colo205) were cultured in RPMI (Mediatech 50-020-PB) containing 10% FBS and 1% penicillin-streptomycin. […] Human melanoma cancer cells (A375-F11S) were cultured in RPMI (Mediatech 50-020-PB) containing 10% FBS, 1% sodium pyruvate, and 1% penicillin-streptomycin. Human colon cancer cells (HT-29) were cultured in high glucose DMEM (Mediatech 50-013-PB) containing 10% FBS and 1% penicillin-streptomycin. Human melanoma cancer cells (SK-MEL-3) were cultured in McCoy's 5A (50-025-PB) containing 15% FBS, and 1% penicillin-streptomycin. All cell lines were maintained at 37° C. in a humidified 5% CO2, 95% air incubator.
The next day, compounds were diluted as follows: For 96-well assays, 13.5 μl of compound in DMSO were diluted using nine (9) serial 1:3 dilutions of 4.5 μl in 9 μl of DMSO. Medium (270 μl/well of RPMI with 10% FBS and 1% penicillin-streptomycin) was added to the plates. Aliquots (7 μl) were added to cells in the final assay giving a final DMSO concentration of 0.2%. For 384-well assays, 15 μl of compound in DMSO were diluted using nine (9) serial 1:3 dilutions of 5 μl in 10 μl of DMSO, followed by a further dilution of 5 μl of compound with 95 μl of medium, of which 2 μl are added to cells in the final assay giving a final DMSO concentration of 0.2%. Cells were incubated at 37° C., 5% CO2 for 3 days.
Total ATP was measured (as a surrogate estimate of cell number) using CellTiter-Glo® (Promega G7571) reagent. Briefly, plates were removed from the incubator and allowed to equilibrate to room temperature for 30 minutes. CellTiter-Glo® (25 μl or 55 μl for 384-well or 96-well assays, respectively) reagent was added to each well and plates were shaken on an orbital plate shaker for 2 minutes. Plates were incubated without shaking for a further 30 minutes and read on an LJL Analyst GT reader in luminometer mode with an integration time of 0.5 seconds per well. Percent inhibition of cell growth was calculated relative to DMSO vehicle-treated control wells.

As for `CCNc1nc(-c2cc(C)cc(OC)c2)c(-c2ccnc(Nc3ccc(OC4CCN(CCS(C)(=O)=O)CC4)c(C)c3)n2)o1` [Example 125], the IC50 at B-Raf is < 100 nM; in the assay on A375P tumor cells, 500 to 5000 nM; in the assay with HT-29 tumor cells, 500 to 5000 nM; in the assay on Colo205 tumor cells, 500 to 5000 nM; in the assay on SK-MEL-3 tumor cells it was 500 to 5000 nM; in the assay with SK-MEL-28 tumor cells, 500 to 5000 nM.
In the case of `CCNc1nc(-c2cc(OC)cc(OC)c2)c(-c2ccnc(Nc3ccc(N4CCN(CCO)CC4)nc3)n2)o1` [Example 108], the IC50 is < 100 nM on B-Raf; 500 to 5000 nM in the assay on A375P tumor cells; 500 to 5000 nM with HT-29 tumor cells; < 500 nM with Colo205 tumor cells; 500 to 5000 nM with SK-MEL-3 tumor cells; 500 to 5000 nM in the assay on SK-MEL-28 tumor cells.
`CCNc1nc(-c2cc(OC)ccn2)c(-c2ccnc(Nc3ccc(OCCN4CCCC4)c(Cl)c3)n2)s1` [Example 57, N-(3-Chloro-4-{[2-(1-pyrrolidinyl)ethyl]oxy}phenyl)-4-{2-(ethylamino)-4-[4-(methyloxy)-2-pyridinyl]-1,3-thiazol-5-yl}-2-pyrimidinamine]: the IC50 was < 100 nM at B-Raf; < 500 nM in the assay on A375P tumor cells; < 500 nM with HT-29 tumor cells; 500 to 5000 nM in the assay on Colo205 tumor cells; < 500 nM with SK-MEL-3 tumor cells; 500 to 5000 nM in the assay with SK-MEL-28 tumor cells.
On to `CCNc1nc(-c2cc(Cl)cc(OC)c2)c(-c2ccnc(Nc3ccc(N4CCN(CCF)CC4)c(F)c3)n2)o1` [Example 104], for which the IC50 was < 100 nM on B-Raf; 500 to 5000 nM with A375P tumor cells; < 500 nM in the assay with HT-29 tumor cells; < 500 nM in the assay on Colo205 tumor cells; 500 to 5000 nM in the assay on SK-MEL-3 tumor cells; 500 to 5000 nM in the assay on SK-MEL-28 tumor cells.
Consider `CNc1nc(-c2cc(OC)cc(OC)c2)c(-c2ccnc(Nc3ccc(OCCN4CCCC4)c(Cl)c3)n2)s1` [Example 20, 4-[4-[3,5-Bis(methyloxy)phenyl]-2-(methylamino)-1,3-thiazol-5-yl]-N-(3-chloro-4-{[2-(1-pyrrolidinyl)ethyl]oxy}phenyl)-2-pyrimidinamine], for which the IC50 is < 100 nM on B-Raf; < 500 nM with A375P tumor cells; < 500 nM in the assay on HT-29 tumor cells; < 500 nM with Colo205 tumor cells; < 500 nM with SK-MEL-3 tumor cells; < 500 nM in the assay with SK-MEL-28 tumor cells.
Regarding `CCNc1nc(-c2ccc3c(c2)OCO3)c(-c2ccnc(Nc3ccc(N4CCN(C(C)=O)CC4)nc3)n2)s1` [Example 53, N-[6-(4-Acetyl-1-piperazinyl)-3-pyridinyl]-4-[4-(1,3-benzodioxol-5-yl)-2-(ethylamino)-1,3-thiazol-5-yl]-2-pyrimidinamine], the IC50 on B-Raf was < 100 nM; in the assay with A375P tumor cells, < 500 nM; in the assay with HT-29 tumor cells it was < 500 nM; with Colo205 tumor cells, < 500 nM; with SK-MEL-3 tumor cells, < 500 nM; in the assay with SK-MEL-28 tumor cells, 500 to 5000 nM.
Consider `CCc1nc(-c2cc(CO)cc(OC)c2)c(-c2ccnc(Nc3ccc(N4CCN(C(C)=O)CC4)nc3)n2)s1` [Example 65, [3-[5-(2-{[6-(4-Acetyl-1-piperazinyl)-3-pyridinyl]amino}-4-pyrimidinyl)-2-ethyl-1,3-thiazol-4-yl]-5-(methyloxy)phenyl]methanol], for which the IC50 at B-Raf is < 100 nM; in the assay with A375P tumor cells, 500 to 5000 nM; with HT-29 tumor cells it was 500 to 5000 nM; in the assay on Colo205 tumor cells, 500 to 5000 nM; in the assay with SK-MEL-3 tumor cells it was 500 to 5000 nM; in the assay on SK-MEL-28 tumor cells, 500 to 5000 nM.
As for `CCNc1nc(-c2ccc(Cl)c(C)c2)c(-c2ccnc(Nc3ccc(OCCN4CCCC4)c(Cl)c3)n2)s1` [Example 54, 4-[4-(4-Chloro-3-methylphenyl)-2-(ethylamino)-1,3-thiazol-5-yl]-N-(3-chloro-4-{[2-(1-pyrrolidinyl)ethyl]oxy}phenyl)-2-pyrimidinamine], the IC50 was < 100 nM on B-Raf; 500 to 5000 nM with A375P tumor cells; < 500 nM in the assay with HT-29 tumor cells; < 500 nM with Colo205 tumor cells; < 500 nM in the assay on SK-MEL-3 tumor cells; 500 to 5000 nM in the assay with SK-MEL-28 tumor cells.
`COc1cc(OC)cc(-c2nc(NC3CC3)sc2-c2ccnc(Nc3ccc(OCCN(C)C)c(Cl)c3)n2)c1` [Example 105]: the IC50 on B-Raf is < 100 nM; with A375P tumor cells it was < 500 nM; with HT-29 tumor cells it was < 500 nM; in the assay on Colo205 tumor cells, < 500 nM; in the assay on SK-MEL-3 tumor cells, < 500 nM; with SK-MEL-28 tumor cells it was < 500 nM.
As to `CCNc1nc(-c2cc(OC)cc(OC)c2)c(-c2ccnc(Nc3ccc(OCCN(C)C)c(C)c3)n2)s1` [Example 106], the IC50 at B-Raf is < 100 nM; with A375P tumor cells, < 500 nM; in the assay with HT-29 tumor cells, < 500 nM; in the assay on Colo205 tumor cells, < 500 nM; in the assay with SK-MEL-3 tumor cells, < 500 nM; in the assay with SK-MEL-28 tumor cells, 500 to 5000 nM.
For the compound `CCNc1nc(-c2cc(C)cc(OC)c2)c(-c2ccnc(Nc3ccc(N4CCN(C)CC4)c(OC)c3)n2)s1` [Example 33, 4-{2-(Ethylamino)-4-[3-methyl-5-(methyloxy)phenyl]-1,3-thiazol-5-yl}-N-[3-(methyloxy)-4-(4-methyl-1-piperazinyl)phenyl]-2-pyrimidinamine], the IC50 at B-Raf is < 100 nM; with A375P tumor cells it was < 500 nM; in the assay with HT-29 tumor cells, < 500 nM; with Colo205 tumor cells, < 500 nM; in the assay on SK-MEL-3 tumor cells it was < 500 nM; in the assay with SK-MEL-28 tumor cells, < 500 nM.
Regarding `CCNc1nc(-c2cc(OC)cc(OC)c2)c(-c2ccnc(Nc3ccc(N4CCN5CCCCC5C4)c(F)c3)n2)s1` (stereo not drawn) [Example 115], the IC50 on B-Raf was < 100 nM; in the assay on A375P tumor cells, 500 to 5000 nM; in the assay with HT-29 tumor cells it was < 500 nM; in the assay on Colo205 tumor cells it was < 500 nM; in the assay with SK-MEL-3 tumor cells it was < 500 nM; in the assay with SK-MEL-28 tumor cells, 500 to 5000 nM.
As to `CCNc1nc(-c2cccc(OC)c2)c(-c2ccnc(Nc3ccc(N4CCOCC4)nc3)n2)s1` [Example 42, 4-{2-(Ethylamino)-4-[3-(methyloxy)phenyl]-1,3-thiazol-5-yl}-N-[6-(4-morpholinyl)-3-pyridinyl]-2-pyrimidinamine], the IC50 on B-Raf is < 100 nM; in the assay on A375P tumor cells, < 500 nM; in the assay on HT-29 tumor cells, < 500 nM; with Colo205 tumor cells, < 500 nM; with SK-MEL-3 tumor cells, < 500 nM; in the assay on SK-MEL-28 tumor cells it was 500 to 5000 nM.
On to `COc1cc(C)cc(-c2nc(C(C)C)sc2-c2ccnc(Nc3ccc(N4CCN(CCS(C)(=O)=O)CC4)c(F)c3)n2)c1` [Example 62, N-(3-Fluoro-4-{4-[2-(methylsulfonyl)ethyl]-1-piperazinyl}phenyl)-4-{2-(1-methylethyl)-4-[3-methyl-5-(methyloxy)phenyl]-1,3-thiazol-5-yl}-2-pyrimidinamine], for which the IC50 on B-Raf was < 100 nM; in the assay with A375P tumor cells, < 500 nM; in the assay with HT-29 tumor cells, < 500 nM; with Colo205 tumor cells, 500 to 5000 nM; in the assay on SK-MEL-3 tumor cells, < 500 nM; in the assay with SK-MEL-28 tumor cells, 500 to 5000 nM.
Turning to `COc1cc(OC)cc(-c2nc(NC3CC3)sc2-c2ccnc(Nc3ccc4c(c3)CN(C)CC4)n2)c1` [Example 15, N-{4-[4-[3,5-Bis(methyloxy)phenyl]-2-(cyclopropylamino)-1,3-thiazol-5-yl]-2-pyrimidinyl}-2-methyl-1,2,3,4-tetrahydro-7-isoquinolinamine], the IC50 on B-Raf is < 100 nM; with A375P tumor cells it was 500 to 5000 nM; in the assay on HT-29 tumor cells, 500 to 5000 nM; in the assay with Colo205 tumor cells, 500 to 5000 nM; with SK-MEL-3 tumor cells, < 500 nM; in the assay with SK-MEL-28 tumor cells, 500 to 5000 nM.
Consider `COc1cc(OC)cc(-c2nc(NCCF)sc2-c2ccnc(Nc3ccc(OCCN4CCCC4)c(Cl)c3)n2)c1` [Example 21, 4-{4-[3,5-Bis(methyloxy)phenyl]-2-[(2-fluoroethyl)amino]-1,3-thiazol-5-yl}-N-(3-chloro-4-{[2-(1-pyrrolidinyl)ethyl]oxy}phenyl)-2-pyrimidinamine], for which the IC50 was < 100 nM on B-Raf; < 500 nM in the assay with A375P tumor cells; < 500 nM with HT-29 tumor cells; 500 to 5000 nM in the assay with Colo205 tumor cells; < 500 nM in the assay with SK-MEL-3 tumor cells; 500 to 5000 nM in the assay with SK-MEL-28 tumor cells.
As for `CCNc1nc(-c2cc(OC)cc(OC)c2)c(-c2ccnc(Nc3ccc(OC4CCN(CCS(C)(=O)=O)CC4)c(Cl)c3)n2)o1` [Example 92], the IC50 at B-Raf was < 100 nM; in the assay with A375P tumor cells, 500 to 5000 nM; in the assay on HT-29 tumor cells, 500 to 5000 nM; in the assay with Colo205 tumor cells it was 500 to 5000 nM; in the assay on SK-MEL-3 tumor cells, 500 to 5000 nM; in the assay on SK-MEL-28 tumor cells, 500 to 5000 nM.
On to `CCNc1nc(-c2cc(C)cc(OC)c2)c(-c2ccnc(Nc3ccc(OC4CCN(CCS(C)(=O)=O)CC4)c(F)c3)n2)s1` [Example 32, 4-{2-(Ethylamino)-4-[3-methyl-5-(methyloxy)phenyl]-1,3-thiazol-5-yl}-N-[3-fluoro-4-({1-[2-(methylsulfonyl)ethyl]-4-piperidinyl}oxy)phenyl]-2-pyrimidinamine], for which the IC50 at B-Raf is < 100 nM; in the assay with A375P tumor cells, < 500 nM; with HT-29 tumor cells, < 500 nM; in the assay with Colo205 tumor cells it was < 500 nM; with SK-MEL-3 tumor cells it was < 500 nM; with SK-MEL-28 tumor cells it was < 500 nM.
In the case of `CCNc1nc(-c2cc(C)cc(OC)c2)c(-c2ccnc(Nc3ccc(N4CCN(C)CC4)c(Cl)c3)n2)s1` [Example 31, N-[3-Chloro-4-(4-methyl-1-piperazinyl)phenyl]-4-{2-(ethylamino)-4-[3-methyl-5-(methyloxy)phenyl]-1,3-thiazol-5-yl}-2-pyrimidinamine], the IC50 at B-Raf is < 100 nM; in the assay with A375P tumor cells it was < 500 nM; with HT-29 tumor cells, < 500 nM; in the assay on Colo205 tumor cells it was < 500 nM; in the assay on SK-MEL-3 tumor cells, < 500 nM; with SK-MEL-28 tumor cells, < 500 nM.

The record behind these values is patent US20110190280A1, “Thiazole And Oxazole Kinase Inhibitors” (priority 2007, published 2011).
